According to US20260232876A1, “POROUS METAL STRUCTURES INCORPORATING NANOPARTICLES” (Yissum Research Development Company of the Hebrew …, priority 2023, published 2026):

Assay: Thymol retention on porous titanium in open air, remaining thymol by HPLC
Type: physicochemical
Conditions: 360 h

amount of thymol remaining in the samples: almost no thymol left
Structure (SMILES): Cc1ccc(C(C)C)c(O)c1 [free thymol, thymol]
